Measured values as given in PubChem BioAssay AID2060891 (Molecular Pharmacology Branch, DTP, NCI, 2025).

System: K98450-129-R-PDC complex spheroid growth, percent test/control
Test: Anticancer human tumor K98450-129-R-PDC patient-derived colon adenocarcinoma cell line growth inhibition [RAS]
Details: for IC50: curve of first compound; for viability, T/C: stronger effect = lower value; active means viability on the fitted dose curve at most 10% of control; inactive means the rest
Outline: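 Tumour cells grown as complex spheroids with HUVEC endothelial cells and mesenchymal stem cells, treated with RAS pathway inhibitor combinations. Each agent spans half-log steps from near clinical Cmax, or 10 microM where Cmax is unknown.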

[1] = second compound 0.000949 µM, first compound 0.0316 µM
[2] = second compound 0.000949 µM, first compound 0.1 µM
[3] = second compound 0.000949 µM, first compound 0.316 µM
[4] = second compound 0.000949 µM, first compound 1 µM
[5] = second compound 0.003 µM, first compound 0.0316 µM
[6] = second compound 0.003 µM, first compound 0.1 µM
[7] = second compound 0.003 µM, first compound 0.316 µM
[8] = second compound 0.003 µM, first compound 1 µM
[9] = second compound 0.00949 µM, first compound 0.0316 µM
[10] = second compound 0.00949 µM, first compound 0.1 µM
[11] = second compound 0.00949 µM, first compound 0.316 µM
[12] = second compound 0.00949 µM, first compound 1 µM
[13] = second compound 0.03 µM, first compound 0.0316 µM
[14] = second compound 0.03 µM, first compound 0.1 µM
[15] = second compound 0.03 µM, first compound 0.316 µM
[16] = second compound 0.03 µM, first compound 1 µM
[17] = second compound 0.0949 µM, first compound 0.0316 µM
[18] = second compound 0.0949 µM, first compound 0.1 µM
[19] = second compound 0.0949 µM, first compound 0.316 µM
[20] = second compound 0.0949 µM, first compound 1 µM
[21] = second compound 0.3 µM, first compound 0.0316 µM
[22] = second compound 0.3 µM, first compound 0.1 µM
[23] = second compound 0.3 µM, first compound 0.316 µM
[24] = second compound 0.3 µM, first compound 1 µM
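Further: spheroids exposed to agents for seven days before the viability readout.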
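Wherever viability, T/C is given: luminescence used as a proxy for viable cell amount.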

CC(=O)OC12COC1CC(O)C1(C)C(=O)C(O)C3=C(C)C(OC(=O)C(O)C(NC(=O)OC(C)(C)C)c4ccccc4)CC(O)(C(OC(=O)c4ccccc4)C21)C3(C)C (stereo unspecified) + CCn1c(-c2cc(N3CCN(C)CC3)cnc2C(C)OC)c2c3cc(ccc31)-c1csc(n1)CC(NC(=O)C1CC1C)C(=O)N1CCCC(N1)C(=O)OCC(C)(C)C2
inactive: viability, T/C [1] 101% | viability, T/C [2] 78.6% | viability, T/C [3] 66.3% | viability, T/C [4] 39.4% | viability, T/C (second compound 0.000949 µM, first compound 3.16 µM) 38.4% | viability, T/C (second compound 0.000949 µM, first compound 10 µM) 34% | viability, T/C [5] 95.8% | viability, T/C [6] 69.4% | viability, T/C [7] 46% | viability, T/C [8] 29.2% | viability, T/C (second compound 0.003 µM, first compound 3.16 µM) 32.5% | viability, T/C (second compound 0.003 µM, first compound 10 µM) 22.4% | viability, T/C [9] 64.7% | viability, T/C [10] 70.1% | viability, T/C [11] 35.6% | viability, T/C [12] 24.6% | viability, T/C (second compound 0.00949 µM, first compound 3.16 µM) 23.5% | viability, T/C (second compound 0.00949 µM, first compound 10 µM) 19.2% | viability, T/C [13] 44.9% | viability, T/C [14] 43.2% | viability, T/C [15] 20.9% | viability, T/C [16] 16.6% | viability, T/C (second compound 0.03 µM, first compound 3.16 µM) 15.8% | viability, T/C (second compound 0.03 µM, first compound 10 µM) 15.3% | viability, T/C [17] 17.3% | viability, T/C [18] 14.5% | viability, T/C [19] 12.4% | viability, T/C [20] 12.5% | viability, T/C (second compound 0.0949 µM, first compound 3.16 µM) 12.5% | viability, T/C (second compound 0.0949 µM, first compound 10 µM) 10.7% | viability, T/C [21] 11% | viability, T/C [22] 10.1% | viability, T/C [23] 11% | viability, T/C [24] 9.96% | viability, T/C (second compound 0.3 µM, first compound 3.16 µM) 10.9% | viability, T/C (second compound 0.3 µM, first compound 10 µM) 9.38%
188 nM: IC50 (second compound 0.00949 µM)
< 31.6 nM: IC50 (second compound 0.03 µM) | IC50 (second compound 0.0949 µM) | IC50 (second compound 0.3 µM)
688 nM: IC50 (second compound 0.000949 µM)
252 nM: IC50 (second compound 0.003 µM)

CCc1c2c(nc3ccc(O)cc13)-c1cc3c(c(=O)n1C2)COC(=O)[C@]3(O)CC + CCn1c(-c2cc(N3CCN(C)CC3)cnc2C(C)OC)c2c3cc(ccc31)-c1csc(n1)CC(NC(=O)C1CC1C)C(=O)N1CCCC(N1)C(=O)OCC(C)(C)C2
active: viability, T/C (second compound 0.0949 µM, first compound 0.3 µM) 9.33% | viability, T/C (second compound 0.3 µM, first compound 0.0949 µM) 10.3% | viability, T/C (second compound 0.3 µM, first compound 0.3 µM) 6.55%
< 0.949 nM: IC50 (second compound 0.0949 µM) | IC50 (second compound 0.3 µM)
3.92 nM: IC50 (second compound 0.03 µM)
57.1 nM: IC50 (second compound 0.003 µM)
18.5 nM: IC50 (second compound 0.00949 µM)
inactive: viability, T/C (second compound 0.000949 µM, first compound 0.000949 µM) 105% | viability, T/C (second compound 0.000949 µM, first compound 0.003 µM) 89.6% | viability, T/C (second compound 0.000949 µM, first compound 0.00949 µM) 81.6% | viability, T/C (second compound 0.000949 µM, first compound 0.03 µM) 52.6% | viability, T/C (second compound 0.000949 µM, first compound 0.0949 µM) 53.1% | viability, T/C (second compound 0.000949 µM, first compound 0.3 µM) 44.3% | viability, T/C (second compound 0.003 µM, first compound 0.000949 µM) 91.6% | viability, T/C (second compound 0.003 µM, first compound 0.003 µM) 75.3% | viability, T/C (second compound 0.003 µM, first compound 0.00949 µM) 76% | viability, T/C (second compound 0.003 µM, first compound 0.03 µM) 54.7% | viability, T/C (second compound 0.003 µM, first compound 0.0949 µM) 43.8% | viability, T/C (second compound 0.003 µM, first compound 0.3 µM) 36.4% | viability, T/C (second compound 0.00949 µM, first compound 0.000949 µM) 69.5% | viability, T/C (second compound 0.00949 µM, first compound 0.003 µM) 56.6% | viability, T/C (second compound 0.00949 µM, first compound 0.00949 µM) 66.7% | viability, T/C (second compound 0.00949 µM, first compound 0.03 µM) 39.6% | viability, T/C (second compound 0.00949 µM, first compound 0.0949 µM) 29.3% | viability, T/C (second compound 0.00949 µM, first compound 0.3 µM) 22.5% | viability, T/C (second compound 0.03 µM, first compound 0.000949 µM) 53.4% | viability, T/C (second compound 0.03 µM, first compound 0.003 µM) 52.8% | viability, T/C (second compound 0.03 µM, first compound 0.00949 µM) 43.3% | viability, T/C (second compound 0.03 µM, first compound 0.03 µM) 24.7% | viability, T/C (second compound 0.03 µM, first compound 0.0949 µM) 22.8% | viability, T/C (second compound 0.03 µM, first compound 0.3 µM) 13.9% | viability, T/C (second compound 0.0949 µM, first compound 0.000949 µM) 19.6% | viability, T/C (second compound 0.0949 µM, first compound 0.003 µM) 24.4% | viability, T/C (second compound 0.0949 µM, first compound 0.00949 µM) 17.5% | viability, T/C (second compound 0.0949 µM, first compound 0.03 µM) 12.3% | viability, T/C (second compound 0.0949 µM, first compound 0.0949 µM) 13.2% | viability, T/C (second compound 0.3 µM, first compound 0.000949 µM) 12.4% | viability, T/C (second compound 0.3 µM, first compound 0.003 µM) 15.5% | viability, T/C (second compound 0.3 µM, first compound 0.00949 µM) 11.4% | viability, T/C (second compound 0.3 µM, first compound 0.03 µM) 10.8%
83.6 nM: IC50 (second compound 0.000949 µM)

Nc1ccn(C2OC(CO)C(O)C2(F)F)c(=O)n1 (stereo unspecified) + CCn1c(-c2cc(N3CCN(C)CC3)cnc2C(C)OC)c2c3cc(ccc31)-c1csc(n1)CC(NC(=O)C1CC1C)C(=O)N1CCCC(N1)C(=O)OCC(C)(C)C2
26.4 nM: IC50 (second compound 0.00949 µM)
133 nM: IC50 (second compound 0.003 µM)
< 3.16 nM: IC50 (second compound 0.03 µM) | IC50 (second compound 0.0949 µM) | IC50 (second compound 0.3 µM)
254 nM: IC50 (second compound 0.000949 µM)
inactive: viability, T/C (second compound 0.000949 µM, first compound 0.00316 µM) 93.1% | viability, T/C (second compound 0.000949 µM, first compound 0.01 µM) 82.9% | viability, T/C [1] 80.5% | viability, T/C [2] 56.4% | viability, T/C [3] 50.5% | viability, T/C [4] 37.6% | viability, T/C (second compound 0.003 µM, first compound 0.00316 µM) 98.1% | viability, T/C (second compound 0.003 µM, first compound 0.01 µM) 80.1% | viability, T/C [5] 62.3% | viability, T/C [6] 52.8% | viability, T/C [7] 44.4% | viability, T/C [8] 37.3% | viability, T/C (second compound 0.00949 µM, first compound 0.00316 µM) 77% | viability, T/C (second compound 0.00949 µM, first compound 0.01 µM) 62.2% | viability, T/C [9] 49.2% | viability, T/C [10] 33.2% | viability, T/C [11] 30% | viability, T/C [12] 23.8% | viability, T/C (second compound 0.03 µM, first compound 0.00316 µM) 43.4% | viability, T/C (second compound 0.03 µM, first compound 0.01 µM) 45.9% | viability, T/C [13] 33.5% | viability, T/C [14] 23.1% | viability, T/C [15] 20.7% | viability, T/C [16] 15.2% | viability, T/C (second compound 0.0949 µM, first compound 0.00316 µM) 21.1% | viability, T/C (second compound 0.0949 µM, first compound 0.01 µM) 21.4% | viability, T/C [17] 14.4% | viability, T/C [18] 11.9% | viability, T/C [19] 14.8% | viability, T/C [20] 11.5% | viability, T/C (second compound 0.3 µM, first compound 0.00316 µM) 9.67% | viability, T/C (second compound 0.3 µM, first compound 0.01 µM) 13.7% | viability, T/C [21] 12.9% | viability, T/C [22] 11.4% | viability, T/C [23] 10.9% | viability, T/C [24] 9.09%
